Data from patent US5955616A, “Pyrrolidine derivatives having phospholipase A2 inhibitory activity” (Shionogi & Co., Ltd., priority 1995, dated 1999).

What was measured:
[1] = target: T1, cPLA2 (Homo sapiens, UniProt P47712); assay: cPLA2 Inhibitory activity (release of radiolabelled fatty acid from liposomes); type: biochemical; settings: 50 mM HEPES pH 7.4, 1 mM CaCl2, 2.5 μM radio-labeled phosphatidylcholine, 15 min at 37° C; read-out: cPLA2 Inhibition Activity IC50
T1 sequence (P47712 1-749): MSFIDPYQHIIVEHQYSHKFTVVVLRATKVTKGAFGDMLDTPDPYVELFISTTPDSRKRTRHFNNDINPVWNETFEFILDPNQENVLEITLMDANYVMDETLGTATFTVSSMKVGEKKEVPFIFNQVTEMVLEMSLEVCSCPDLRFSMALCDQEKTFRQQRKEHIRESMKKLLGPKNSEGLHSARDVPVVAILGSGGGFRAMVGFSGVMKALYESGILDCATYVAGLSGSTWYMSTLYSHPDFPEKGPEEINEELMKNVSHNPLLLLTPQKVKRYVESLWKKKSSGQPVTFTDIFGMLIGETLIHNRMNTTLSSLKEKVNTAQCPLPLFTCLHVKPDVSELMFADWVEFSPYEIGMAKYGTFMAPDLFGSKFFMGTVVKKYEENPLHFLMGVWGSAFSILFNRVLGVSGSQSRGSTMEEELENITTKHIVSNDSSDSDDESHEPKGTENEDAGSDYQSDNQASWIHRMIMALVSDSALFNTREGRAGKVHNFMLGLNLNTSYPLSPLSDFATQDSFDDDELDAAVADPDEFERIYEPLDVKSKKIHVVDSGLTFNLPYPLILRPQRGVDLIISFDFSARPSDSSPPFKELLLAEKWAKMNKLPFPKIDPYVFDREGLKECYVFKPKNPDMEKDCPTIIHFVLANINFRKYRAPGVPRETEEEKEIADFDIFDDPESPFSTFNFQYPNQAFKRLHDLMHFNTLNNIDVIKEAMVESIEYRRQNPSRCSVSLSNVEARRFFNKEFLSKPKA
Procedure: Experiment 1 cPLA2 Inhibitory activity
The compounds of the present invention was tested for the cPLA2 inhibitory activity by a method known in a literature (R. M. Kramer, E. F. Roberts, J. Manetta and J. E. Putnam, J. Biol. Chem., 268(8), 5268-5272 ([…])), as outlined below.
As a substrate, liposomes which contain 1-palmitoyl-2-[^14 C]-arachidonoyl-sn-glycero-3-phosphocholine and sn-1,2-dioleoylglycerol at the ratio of 2:1 and have treated ultrasonically were used. The substrate was added to a 50 mM HEPES buffer (pH 7.4) (200 μl) containing 1 mM CaCl2, 2 mM dithiothreitol, 150 mM NaCl, 0.1 mg/ml BSA so as to make the concentration of radio-labeled phosphatidylcholine 2.5 μM. To the solution was added a compound of the present invention in DMSO (10 μl) to obtain reaction solutions each containing the test compound at 250 μM, 50 μM, 10 μm, 2 μM, and 0.4 μM. The reaction was allowed to start by adding an enzyme (cPLA2) (4 ng) and continued for 15 min at 37° C.
The amount of fatty acids released by the reaction was measured on a liquid scintillation counter. Control was obtained by conducting the experiment in the same manner except that a compound of the present invention was not added. The inhibitory activity was expressed as percent (%) to the control value, which was used for the calculation of the concentration required for 50% inhibition (IC50, μM).

[2] = tested on: Prostaglandin E2 production in human fibroblasts; assay: Inhibition of Production of Prostaglandin E2 in Human Fibroblasts (IL-1 stimulated); type: cell-based; settings: Fibroblast, stimulation with IL-1, read-out: Inhibitory activity Against the Production of Prostaglandin E2 in Human Fibroblasts IC50
Procedure: Experiment 2 Inhibition of Production of Prostaglandin E2 in Human Fibroblasts
From this viewpoint, the compounds of the present invention were tested for the effect on the production of prostaglandin E2 by human fibroblasts under the stimulation with IL-1 according to the method of J. M. Dayer et al (CACHECTIN/TUMOR NECROSIS FACTOR STIMULATES COLLAGENASE AND PROSTAGLANDIN E2 PRODUCTION BY HUMAN SYNOVIAL CELLS AND DERMAL FIBROBLASTS; J. M. Dayer, B. Beutlerm and A. Cerami, J. Exp. Med., 162,2163-2168, 1985).

SMILES | IC50 [1] | IC50 [2]
O=C1NC(=O)/C(=C/c2ccc(C(=O)NC[C@@H]3C[C@H](SC(c4ccccc4)(c4ccccc4)c4ccccc4)CN3C(=O)OCc3ccc([N+](=O)[O-])cc3)cc2)S1 [Compound B-4] | 2.4 µM | 4.6 µM
O=C1NC(=O)/C(=C/c2ccc(NC(=O)[C@@H]3C[C@H](SCc4ccccc4)CN3S(=O)(=O)c3ccc(-c4ccccc4)cc3)cc2)S1 [Compound A-42] | 14 µM | 3.8 µM
CC(C)S[C@H]1C[C@@H](C(=O)Nc2ccc(C=C3SC(=S)NC3=O)cc2)N(C(=O)OC(C)(C)C)C1 [Compound A-16] | 22 µM | 2.9 µM
O=C1NC(=O)C(=Cc2ccc(NC(=O)[C@@H]3C[C@H](SCc4ccc(C(F)(F)F)cc4)CN3C(=O)c3ccccc3)cc2)S1 [Compound A-7] | 5.3 µM | 4.5 µM
O=C1NC(=S)S/C1=C\c1ccc(NC(=O)[C@@H]2C[C@H](SCc3ccccc3)CN2S(=O)(=O)c2ccc(-c3ccccc3)cc2)cc1 [Compound A-43] | 6.8 µM | 8.8 µM
O=C1NC(=S)S/C1=C\c1ccc(NC(=O)[C@@H]2C[C@H](SCc3ccccc3)CN2S(=O)(=O)Cc2ccc(Br)cc2)cc1 [Compound A-54] | 3.4 µM | 1.1 µM
O=C1NC(=S)SC1=Cc1ccc(NC(=O)[C@@H]2C[C@H](SCc3ccccc3)CN2C(=S)Nc2ccccc2)cc1 [Compound A-29] | 5.9 µM | 1.2 µM
O=C1NC(=S)O/C1=C\c1cn(NC(=O)[C@@H]2C[C@H](SCc3ccccc3)CN2C(=O)c2ccccc2)c2ccccc12 [Compound A-61] | 1.6 µM | 10 µM
CS[C@H]1C[C@@H](C(=O)Nc2ccc(/C=C3\SC(=S)NC3=O)cc2)N(S(=O)(=O)c2ccc(-c3ccccc3)cc2)C1 [Compound A-45] | 4.8 µM | 1.5 µM
O=C1NC(=O)C(=Cc2ccc(NC(=O)[C@@H]3C[C@H](SCc4ccc(-c5ccccc5)cc4)CN3C(=O)c3ccccc3)cc2)S1 [Compound A-6] | 3.3 µM | 8.2 µM
CC(C)(C)c1ccc(S(=O)(=O)N2C[C@@H](SCc3ccccc3)C[C@H]2C(=O)Nc2ccc(/C=C3\SC(=S)NC3=O)cc2)cc1 [Compound A-39] | 6.2 µM | 6 µM
O=C1NC(=O)C(=Cc2ccc(NC(=O)[C@@H]3C[C@H](SCc4ccc(C(F)(F)F)cc4C(F)(F)F)CN3C(=O)c3ccccc3)cc2)S1 [Compound A-8] | 4.8 µM | 2.5 µM
CS[C@H]1C[C@@H](C(=O)Nc2ccc(C=C3SC(=O)NC3=O)cc2)N(C(=O)c2ccc(-c3ccccc3)cc2)C1 [Compound A-20] | 22 µM | 0.3 µM
O=C1NC(=S)S/C1=C\c1ccc(NC(=O)[C@@H]2C[C@H](SCc3ccccc3)CN2S(=O)(=O)Cc2ccc(F)cc2)cc1 [Compound A-55] | 3.4 µM | 1.1 µM
N#CCCCOc1ccc(CS[C@H]2C[C@@H](C(=O)Nc3ccc(/C=C4\SC(=S)NC4=O)cc3)N(S(=O)(=O)Cc3ccc(Br)cc3)C2)cc1 [Compound A-56] | 1.9 µM | 0.93 µM
O=C1NC(=S)SC1=Cc1ccc(NC(=O)[C@@H]2C[C@H](SCc3ccccc3)CN2C(=O)Nc2ccccc2)cc1 [Compound A-28] | 8.3 µM | 0.73 µM
CS[C@H]1C[C@@H](C(=O)Nc2ccc(/C=C3\SC(=O)NC3=O)cc2)N(S(=O)(=O)c2ccc(-c3ccccc3)cc2)C1 [Compound A-44] | 7.4 µM | 1.5 µM
NC(=O)c1ccc(CS[C@H]2C[C@@H](CNC(=O)c3ccc(/C=C4\SC(=S)NC4=O)cc3)N(C(=O)c3ccccc3)C2)cc1 [Compound B-6] | 31 µM | 4.7 µM
O=C1NC(=S)S/C1=C\c1ccc(NC(=O)[C@@H]2C[C@H](SCc3ccccc3)CN2S(=O)(=O)c2ccc(Cc3ccccc3)cc2)cc1 [Compound A-48] | 4.9 µM | 8.7 µM
COc1cc(CS[C@H]2C[C@@H](C(=O)Nc3ccc(/C=C4\SC(=O)NC4=O)cc3)N(S(=O)(=O)c3ccc(-c4ccccc4)cc3)C2)cc(OC)c1OC [Compound A-46] | 7 µM | 1.5 µM

Second part, led by results:

IC50 [1] | SMILES | IC50 [2]
2.9 µM | O=C1NC(=O)C(=Cc2ccc(C(=O)NC[C@@H]3C[C@H](NC(=O)c4ccc(Cn5sccc5=O)cc4)CN3S(=O)(=O)c3ccc(-c4ccccc4)cc3)cc2)S1 [Compound J-2] | 9.7 µM
30 µM | CS[C@H]1C[C@@H](C(=O)Nc2ccccc2/C=C2\SC(=O)NC2=O)N(S(=O)(=O)c2ccc(-c3ccccc3)cc2)C1 [Compound C-1] | 6.1 µM
7 µM | O=C1NC(=O)C(=C(CO)c2ccc(NC(=O)[C@@H]3C[C@H](SCc4ccccc4)CN3S(=O)(=O)c3ccc(-c4ccccc4)cc3)cc2)S1 [Compound D-2] | 5.7 µM
13 µM | O=C1NC(=O)C(=Cc2cc(CCCO)cc(NC(=O)C3CC(OC(c4ccccc4)c4ccccc4)CN3C(=O)c3ccccc3)c2)S1 (stereo not shown) [Compound C-6] | 2.3 µM
2 µM | O=C1NC(=O)/C(=C/c2ccc(C(=O)NC[C@@H]3C[C@H](OCc4ccc(-c5ccccc5)cc4)CN3C(=O)c3ccc(Cn4sccc4=O)cc3)cc2)S1 [Compound H-9] | 9.6 µM
3.2 µM | COC(=O)c1cc(C=C2SC(=O)NC2=O)cc(NC(=O)C2CC(OC(c3ccccc3)c3ccccc3)CN2C(=O)c2ccccc2)c1 (stereo not shown) [Compound C-4] | 2 µM
4.9 µM | O=C1C=CC(=O)C(CCCCCCC(=O)N2C[C@@H](OC(c3ccccc3)c3ccccc3)C[C@H]2CNC(=O)c2ccc(/C=C3\SC(=O)NC3=O)cc2)=C1 [Compound H-17] | 7 µM
10 µM | O=C1NC(=O)/C(=C/c2ccc(C(=O)NC[C@@H]3C[C@H](OC(c4ccccc4)c4ccccc4)CN3C(=O)c3ccc(CN4CCCC4=O)cc3)cc2)S1 [Compound H-10] | 2.4 µM
22 µM | CS[C@H]1C[C@@H](C(=O)Nc2ccc(C(CO)=C3SC(=O)NC3=O)cc2)N(S(=O)(=O)c2ccc(-c3ccccc3)cc2)C1 [Compound D-1] | 3.6 µM
9.8 µM | COC(=O)CCc1cc(C=C2SC(=O)NC2=O)cc(NC(=O)C2CC(OC(c3ccccc3)c3ccccc3)CN2C(=O)c2ccccc2)c1 (stereo not shown) [Compound C-5] | 1.2 µM
4.3 µM | CC(=O)Oc1ccc(O)cc1CCCCCCC(=O)N1C[C@@H](OC(c2ccccc2)c2ccccc2)C[C@H]1CNC(=O)c1ccc(/C=C2\SC(=O)NC2=O)cc1 [Compound H-16] | 1.9 µM
3.7 µM | O=C1NC(=O)/C(=C/c2ccc(CCC[C@@H]3C[C@H](SC(c4ccccc4)c4ccccc4)CN3C(=O)CCc3ccccc3)cc2)S1 [Compound E-4] | 1.9 µM
